Data taken from patent publication US20250340557A1, “PYRIMIDINE DERIVATIVE” (ASKA PHARMACEUTICAL CO., LTD., priority 2022, published 2025).

What follows are compounds tested against T1, human mPGES-1 (Homo sapiens, UniProt O14684) (assay: Test for mPGES-1 inhibitory activity (microsomal enzyme, PGE2 EIA)). Details: microsomes of COS-1 cells transfected with human mPGES-1 cDNA; PGH2 1 μM; 4° C., 4 minutes; PGE2 by EIA; read-out: h mPGES1 IC50.
T1 construct: made in house; host or cells: COS-1 cells (transient transfection; microsomal fraction used as enzyme)
T1 sequence (O14684 1-152): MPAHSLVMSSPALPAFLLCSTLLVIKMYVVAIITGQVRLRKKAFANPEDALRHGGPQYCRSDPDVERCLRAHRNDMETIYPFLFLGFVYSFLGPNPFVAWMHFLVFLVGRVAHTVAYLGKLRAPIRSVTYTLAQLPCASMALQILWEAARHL
Type: biochemical
In short: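 Enzyme source was microsomes from COS-1 cells transiently expressing human mPGES-1, in sodium phosphate pH 7.2 with 2.5 mM GSH, 1 mM EDTA and 2% DMSO final. After a 15 min preincubation with compound at 4 °C, 1 μM PGH2 (final) reacted for 4 min at 4 °C.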

Row | IC50 | Structure (SMILES)
1 | < 1 nM | O=c1cc(C(F)(F)F)nc(-c2c(C(F)(F)F)ccc(CNC(=O)[C@H]3C[C@H](OCc4ccc(Cl)cc4F)C3)c2F)[nH]1 [Example 149, trans-3-[(4-chloro-2-fluorobenzyl)oxy]-N-{2-fluoro-3-[6-oxo-4-(trifluoromethyl)-1,6-dihydropyrimidin-2-yl]-4-(trifluoromethyl)benzyl}cyclobutane-1-carboxamide]
2 | < 1 nM | O=c1cc(C(F)(F)F)nc(-c2c(C(F)(F)F)ccc(CNC(=O)[C@H]3C[C@H](OCc4ccc(F)c(F)c4)C3)c2F)[nH]1 [Example 150, trans-3-[(3,4-difluorobenzyl)oxy]-N-{2-fluoro-3-[6-oxo-4-(trifluoromethyl)-1,6-dihydropyrimidin-2-yl]-4-(trifluoromethyl)benzyl}cyclobutane-1-carboxamide]
3 | < 1 nM | O=c1cc(C(F)(F)F)nc(-c2c(C(F)(F)F)ccc(CNC(=O)[C@H]3C[C@H](OCc4cc(F)cc(F)c4)C3)c2F)[nH]1 [Example 151, trans-3-[(3,5-difluorobenzyl)oxy]-N-{2-fluoro-3-[6-oxo-4-(trifluoromethyl)-1,6-dihydropyrimidin-2-yl]-4-(trifluoromethyl)benzyl}cyclobutane-1-carboxamide]
4 | < 1 nM | O=c1cc(C(F)(F)F)nc(-c2c(C(F)(F)F)ccc(CNC(=O)[C@H]3C[C@H](OCc4cccc(F)c4)C3)c2F)[nH]1 [Example 152, trans-N-{2-fluoro-3-[6-oxo-4-(trifluoromethyl)-1,6-dihydropyrimidin-2-yl]-4-(trifluoromethyl)benzyl}-3-[(3-fluorobenzyl)oxy]cyclobutane-1-carboxamide]
5 | < 1 nM | O=c1cc(C(F)(F)F)nc(-c2c(C(F)(F)F)ccc(CNC(=O)[C@H]3C[C@H](OCc4cccc(F)c4F)C3)c2F)[nH]1 [Example 153, trans-3-[(2,3-difluorobenzyl)oxy]-N-{2-fluoro-3-[6-oxo-4-(trifluoromethyl)-1,6-dihydropyrimidin-2-yl]-4-(trifluoromethyl)benzyl}cyclobutane-1-carboxamide]
6 | < 1 nM | O=c1cc(C(F)(F)F)nc(-c2c(C(F)(F)F)ccc(CNC(=O)[C@H]3C[C@H](OCc4ccc(F)cc4Cl)C3)c2F)[nH]1 [Example 154, trans-3-[(2-chloro-4-fluorobenzyl)oxy]-N-{2-fluoro-3-[6-oxo-4-(trifluoromethyl)-1,6-dihydropyrimidin-2-yl]-4-(trifluoromethyl)benzyl}cyclobutane-1-carboxamide]
7 | < 1 nM | O=c1cc(C(F)(F)F)nc(-c2c(C(F)(F)F)ccc(CNC(=O)[C@H]3C[C@H](OCc4cccc(Cl)c4F)C3)c2F)[nH]1 [Example 155, trans-3-[(3-chloro-2-fluorobenzyl)oxy]-N-{2-fluoro-3-[6-oxo-4-(trifluoromethyl)-1,6-dihydropyrimidin-2-yl]-4-(trifluoromethyl)benzyl}cyclobutane-1-carboxamide]
8 | < 1 nM | O=c1cc(C(F)(F)F)nc(-c2c(C(F)(F)F)ccc(CNC(=O)[C@H]3C[C@H](OCc4cc(Cl)ccc4F)C3)c2F)[nH]1 [Example 156, trans-3-[(5-chloro-2-fluorobenzyl)oxy]-N-{2-fluoro-3-[6-oxo-4-(trifluoromethyl)-1,6-dihydropyrimidin-2-yl]-4-(trifluoromethyl)benzyl}cyclobutane-1-carboxamide]
9 | < 1 nM | O=c1cc(C(F)(F)F)nc(-c2c(C(F)(F)F)ccc(CNC(=O)[C@H]3C[C@H](OCc4ccc(F)c(Cl)c4)C3)c2F)[nH]1 [Example 157, trans-3-[(3-chloro-4-fluorobenzyl)oxy]-N-{2-fluoro-3-[6-oxo-4-(trifluoromethyl)-1,6-dihydropyrimidin-2-yl]-4-(trifluoromethyl)benzyl}cyclobutane-1-carboxamide]
10 | < 1 nM | O=c1cc(C(F)(F)F)nc(-c2c(C(F)(F)F)ccc(CNC(=O)[C@H]3C[C@@H](OCc4ccc(F)c(Cl)c4)C3)c2F)[nH]1 [Example 158, cis-3-[(3-chloro-4-fluorobenzyl)oxy]-N-{2-fluoro-3-[6-oxo-4-(trifluoromethyl)-1,6-dihydropyrimidin-2-yl]-4-(trifluoromethyl)benzyl}cyclobutane-1-carboxamide]
11 | < 12 nM | O=c1cc(C(F)(F)F)nc(-c2c(C(F)(F)F)ccc(CNC(=O)[C@H]3C[C@H](OCc4cc(F)cc(Cl)c4)C3)c2F)[nH]1 [Example 159, trans-3-[(3-chloro-5-fluorobenzyl)oxy]-N-{2-fluoro-3-[6-oxo-4-(trifluoromethyl)-1,6-dihydropyrimidin-2-yl]-4-(trifluoromethyl)benzyl}cyclobutane-1-carboxamide]
12 | < 1 nM | O=c1cc(C(F)(F)F)nc(-c2c(C(F)(F)F)ccc(CNC(=O)[C@H]3C[C@@H](OCc4cc(F)cc(Cl)c4)C3)c2F)[nH]1 [Example 160, cis-3-[(3-chloro-5-fluorobenzyl)oxy]-N-{2-fluoro-3-[6-oxo-4-(trifluoromethyl)-1,6-dihydropyrimidin-2-yl]-4-(trifluoromethyl)benzyl}cyclobutane-1-carboxamide]
13 | < 1 nM | O=c1cc(C(F)F)nc(-c2c(C(F)(F)F)ccc(CNC(=O)[C@H]3C[C@H](OCc4ccccc4Cl)C3)c2F)[nH]1 [Example 161, trans-3-[(2-chlorobenzyl)oxy]-N-{3-[4-(difluoromethyl)-6-oxo-1,6-dihydropyrimidin-2-yl]-2-fluoro-4-(trifluoromethyl)benzyl}cyclobutane-1-carboxamide]
14 | < 1 nM | O=c1cc(C(F)F)nc(-c2c(C(F)(F)F)ccc(CNC(=O)[C@H]3C[C@H](OCc4cccc(Cl)c4)C3)c2F)[nH]1 [Example 162, trans-3-[(3-chlorobenzyl)oxy]-N-{3-[4-(difluoromethyl)-6-oxo-1,6-dihydropyrimidin-2-yl]-2-fluoro-4-(trifluoromethyl)benzyl}cyclobutane-1-carboxamide]
15 | < 1 nM | O=c1cc(C(F)F)nc(-c2c(C(F)(F)F)ccc(CNC(=O)[C@H]3C[C@H](OCc4ccc(Cl)cc4)C3)c2F)[nH]1 [Example 163, trans-3-[(4-chlorobenzyl)oxy]-N-{3-[4-(difluoromethyl)-6-oxo-1,6-dihydropyrimidin-2-yl]-2-fluoro-4-(trifluoromethyl)benzyl}cyclobutane-1-carboxamide]
16 | < 1 nM | O=c1cc(C(F)F)nc(-c2c(C(F)(F)F)ccc(CNC(=O)[C@H]3C[C@H](OCc4ccccc4C(F)(F)F)C3)c2F)[nH]1 [Example 164, trans-N-{3-[4-(difluoromethyl)-6-oxo-1,6-dihydropyrimidin-2-yl]-2-fluoro-4-(trifluoromethyl)benzyl}-3-{[2-(trifluoromethyl)benzyl]oxy}cyclobutane-1-carboxamide]
17 | < 1 nM | O=c1cc(C(F)F)nc(-c2c(C(F)(F)F)ccc(CNC(=O)[C@H]3C[C@H](OCc4cccc(C(F)(F)F)c4)C3)c2F)[nH]1 [Example 165, trans-N-{3-[4-(difluoromethyl)-6-oxo-1,6-dihydropyrimidin-2-yl]-2-fluoro-4-(trifluoromethyl)benzyl}-3-{[3-(trifluoromethyl)benzyl]oxy}cyclobutane-1-carboxamide]
18 | 8.8 nM | O=c1cc(C(F)F)nc(-c2c(C(F)(F)F)ccc(CNC(=O)[C@H]3C[C@H](OCc4ccc(C(F)(F)F)cc4)C3)c2F)[nH]1 [Example 166, trans-N-{3-[4-(difluoromethyl)-6-oxo-1,6-dihydropyrimidin-2-yl]-2-fluoro-4-(trifluoromethyl)benzyl}-3-{[4-(trifluoromethyl)benzyl]oxy}cyclobutane-1-carboxamide]
19 | < 1 nM | O=c1cc(C(F)F)nc(-c2c(C(F)(F)F)ccc(CNC(=O)[C@H]3C[C@H](OCc4ccc(F)cc4F)C3)c2F)[nH]1 [Example 167, trans-3-[(2,4-difluorobenzyl)oxy]-N-{3-[4-(difluoromethyl)-6-oxo-1,6-dihydropyrimidin-2-yl]-2-fluoro-4-(trifluoromethyl)benzyl}cyclobutane-1-carboxamide]
20 | < 1 nM | O=c1cc(C(F)F)nc(-c2c(C(F)(F)F)ccc(CNC(=O)[C@H]3C[C@H](OCc4ccc(Cl)cc4F)C3)c2F)[nH]1 [Example 168, trans-3-[(4-chloro-2-fluorobenzyl)oxy]-N-{3-[4-(difluoromethyl)-6-oxo-1,6-dihydropyrimidin-2-yl]-2-fluoro-4-(trifluoromethyl)benzyl}cyclobutane-1-carboxamide]
21 | < 1 nM | O=c1cc(C(F)F)nc(-c2c(C(F)(F)F)ccc(CNC(=O)[C@H]3C[C@H](OCc4ccc(F)c(F)c4)C3)c2F)[nH]1 [Example 169, trans-3-[(3,4-difluorobenzyl)oxy]-N-{3-[4-(difluoromethyl)-6-oxo-1,6-dihydropyrimidin-2-yl]-2-fluoro-4-(trifluoromethyl)benzyl}cyclobutane-1-carboxamide]
22 | 1.3 nM | O=c1cc(C(F)F)nc(-c2c(C(F)(F)F)ccc(CNC(=O)[C@H]3C[C@H](OCc4cc(F)cc(F)c4)C3)c2F)[nH]1 [Example 170, trans-3-[(3,5-difluorobenzyl)oxy]-N-{3-[4-(difluoromethyl)-6-oxo-1,6-dihydropyrimidin-2-yl]-2-fluoro-4-(trifluoromethyl)benzyl}cyclobutane-1-carboxamide]
23 | < 1 nM | O=c1cc(C(F)F)nc(-c2c(C(F)(F)F)ccc(CNC(=O)[C@H]3C[C@H](OCc4cccc(F)c4)C3)c2F)[nH]1 [Example 171, trans-N-{3-[4-(difluoromethyl)-6-oxo-1,6-dihydropyrimidin-2-yl]-2-fluoro-4-(trifluoromethyl)benzyl}-3-[(3-fluorobenzyl)oxy]cyclobutane-1-carboxamide]
